Results reported in ChEMBL document CHEMBL1201862, “PubChem BioAssay data set” (2004).
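Results reflect a 48-hour exposure of cells in 96-well plates to compound at five concentrations. GI50: concentration for 50% inhibition of growth.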 Calls of active or inactive are those of the source. Cut-off read from the data, not from the text of the source: active = GI50 up to about 1.1 µM and inactive = higher.

Legend:
Assay in all cases: DTP human tumour cell line panel, 48 h
RXF 393 = tested on: RXF 393
SK-MEL-5 = tested on: SK-MEL-5
SF-295 = tested on: SF-295
SN12C = tested on: SN12C
LOX IMVI = tested on: LOX IMVI
IGROV-1 = tested on: IGROV-1
KM-20L2 = tested on: KM-20L2
ACHN = tested on: ACHN
OVCAR-4 = tested on: OVCAR-4
SK-MEL-28 = tested on: SK-MEL-28
DMS-273 = tested on: DMS-273
TK-10 = tested on: TK-10
K562 = tested on: K562
UACC-257 = tested on: UACC-257
SNB-19 = tested on: SNB-19
KM12 = tested on: KM12
RPMI-8226 = tested on: RPMI-8226
NCI-H23 = tested on: NCI-H23
SF-539 = tested on: SF-539
HCT-116 = tested on: HCT-116

Measured: GI50

NC(=O)N/C=C1\C(=O)Oc2ccccc2C1=O
inactive: RXF 393 17.4 µM | SK-MEL-5 > 100 µM | SF-295 51.8 µM | SN12C 64.4 µM | LOX IMVI > 100 µM | IGROV-1 > 100 µM | KM-20L2 86.5 µM | ACHN 48.2 µM | OVCAR-4 > 100 µM | SK-MEL-28 73.5 µM | DMS-273 > 100 µM | TK-10 > 100 µM | K562 > 100 µM | UACC-257 89.9 µM | SNB-19 82.8 µM | KM12 > 100 µM | RPMI-8226 > 100 µM | NCI-H23 > 100 µM | SF-539 85.9 µM | HCT-116 > 100 µM
